Several values for one entry are separate records, joined by “and”; a condition that tells them apart may be missing. Equal values may be shown once. Inconclusive results and toxic doses are left out.
Test system: L1210 leukemia ip in BDF1 mice, survival T/C
Assay: NCI In Vivo Anticancer Drug Screen. Data for tumor model L1210 Leukemia (intraperitoneal) in B6D2F1 (BDF1) mice
Settings: endpoint: mean survival time, higher = longer survival
Procedure, shortened: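 Value reflects the ratio of survival in compound-treated mice to survival in vehicle-treated controls, with both groups carrying the same transplanted tumor.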

[1] = dose: 100.0 mg/kg/injection, schedule: Q04DX002 (ip), vehicle: Klucel (hydroxypropylcellulose) (HPC)
[2] = dose: 200.0 mg/kg/injection, schedule: Q04DX002 (ip), vehicle: Klucel (hydroxypropylcellulose) (HPC)
[3] = dose: 400.0 mg/kg/injection, schedule: Q04DX002 (ip), vehicle: Klucel (hydroxypropylcellulose) (HPC)
[4] = dose: 50.0 mg/kg/injection, schedule: Q01DX009 (ip), vehicle: saline
[5] = dose: 100.0 mg/kg/injection, schedule: Q01DX009 (ip), vehicle: saline
[6] = dose: 100.0 mg/kg/injection, schedule: Q04DX003 (ip), vehicle: saline
[7] = dose: 200.0 mg/kg/injection, schedule: Q01DX009 (ip), vehicle: saline
[8] = dose: 100.0 mg/kg/injection, schedule: Q01DX001 (ip), vehicle: saline
[9] = dose: 200.0 mg/kg/injection, schedule: Q01DX001 (ip), vehicle: saline
[10] = dose: 100.0 mg/kg/injection, schedule: Q01DX001 (ip), vehicle: Klucel (hydroxypropylcellulose) (HPC)
[11] = dose: 200.0 mg/kg/injection, schedule: Q01DX001 (ip), vehicle: Klucel (hydroxypropylcellulose) (HPC)
[12] = dose: 400.0 mg/kg/injection, schedule: Q01DX001 (ip), vehicle: Klucel (hydroxypropylcellulose) (HPC)
[13] = dose: 12.5 mg/kg/injection, schedule: Q01DX009 (ip), vehicle: saline
[14] = dose: 100.0 mg/kg/injection, schedule: Q01DX001 (ip), vehicle: carboxymethylcellulose (CMC)
[15] = dose: 200.0 mg/kg/injection, schedule: Q01DX001 (ip), vehicle: carboxymethylcellulose (CMC)
[16] = dose: 400.0 mg/kg/injection, schedule: Q01DX001 (ip), vehicle: carboxymethylcellulose (CMC)
[17] = dose: 100.0 mg/kg/injection, schedule: Q04DX003 (ip), vehicle: Klucel (hydroxypropylcellulose) (HPC)
[18] = dose: 75.0 mg/kg/injection, schedule: Q01DX001 (ip), vehicle: saline
[19] = dose: 150.0 mg/kg/injection, schedule: Q01DX001 (ip), vehicle: saline
[20] = dose: 200.0 mg/kg/injection, schedule: Q04DX003 (ip), vehicle: Klucel (hydroxypropylcellulose) (HPC)
[21] = dose: 400.0 mg/kg/injection, schedule: Q04DX003 (ip), vehicle: Klucel (hydroxypropylcellulose) (HPC)
[22] = dose: 100.0 mg/kg/injection, schedule: Q01DX009 (ip), vehicle: saline with Tween-80
[23] = dose: 100.0 mg/kg/injection, schedule: Q04DX003 (ip), vehicle: saline with Tween-80
[24] = dose: 200.0 mg/kg/injection, schedule: Q01DX009 (ip), vehicle: saline with Tween-80
[25] = dose: 200.0 mg/kg/injection, schedule: Q04DX003 (ip), vehicle: saline with Tween-80
[26] = dose: 400.0 mg/kg/injection, schedule: Q01DX009 (ip), vehicle: saline with Tween-80
[27] = dose: 400.0 mg/kg/injection, schedule: Q04DX003 (ip), vehicle: saline with Tween-80

## CC(=O)OC1CCC2(C)C(=CCC3C2CCC2(C)C3CC3C(c4ccccc4)=NN(c4ccccc4)C32C(C)=O)C1 (stereo unspecified)
[1]
  T/C: 92 % of control
[2]
  T/C: 103 % of control
[3]
  T/C: 92 % of control

## CCc1ccc(NC(=O)Nc2ccc(Cl)cc2)cc1
dose: 100.0 mg/kg/injection, schedule: Q01DX009 (ip), vehicle: gum acacia
  T/C: 92 % of control
dose: 100.0 mg/kg/injection, schedule: Q04DX003 (ip), vehicle: gum acacia
  T/C: 92 % of control
dose: 200.0 mg/kg/injection, schedule: Q01DX009 (ip), vehicle: gum acacia
  T/C: 89 % of control
dose: 200.0 mg/kg/injection, schedule: Q04DX003 (ip), vehicle: gum acacia
  T/C: 92 % of control
dose: 400.0 mg/kg/injection, schedule: Q01DX009 (ip), vehicle: gum acacia
  T/C: 94 % of control
dose: 400.0 mg/kg/injection, schedule: Q04DX003 (ip), vehicle: gum acacia
  T/C: 93 % of control

## O=C1OC(C(O)C(O)CO)C(O)C1O (stereo unspecified)
[4]
  T/C: 92 % of control
[5]
  T/C: 92 % of control
[6]
  T/C: 92 % of control
[7]
  T/C: 97 % of control
dose: 200.0 mg/kg/injection, schedule: Q04DX003 (ip), vehicle: saline
  T/C: 94 % of control
dose: 400.0 mg/kg/injection, schedule: Q04DX003 (ip), vehicle: saline
  T/C: 100 % of control

## CC(=O)N(c1ccncc1)c1ccc(NC(=O)c2ccc(N3C(=O)c4ccccc4C3=O)cc2[N+](=O)[O-])cc1
dose: 25.0 mg/kg/injection, schedule: Q04DX002 (ip), vehicle: saline with Tween-80
  T/C: 93 % of control and 102 % of control
dose: 400.0 mg/kg/injection, schedule: Q04DX002 (ip), vehicle: saline with Tween-80
  T/C: 96 % of control and 88 % of control

## Cc1nc(CCl)no1
dose: 100.0 mg/kg/injection, schedule: Q04DX002 (ip), vehicle: saline with Tween-80
  T/C: 104 % of control
dose: 200.0 mg/kg/injection, schedule: Q04DX002 (ip), vehicle: saline with Tween-80
  T/C: 95 % of control

## O=C(C[n+]1ccc2ccccc2c1)c1ccc(-c2ccccc2)cc1
dose: 25.0 mg/kg/injection, schedule: Q04DX003 (ip), vehicle: saline
  T/C: 98 % of control
dose: 50.0 mg/kg/injection, schedule: Q04DX003 (ip), vehicle: saline
  T/C: 105 % of control
[8]
  T/C: 94 % of control
[6]
  T/C: 100 % of control
[9]
  T/C: 101 % of control

## COC1OC2COC(c3ccccc3)OC(OC)(C2)C1NC(C)=O (stereo unspecified)
[10]
  T/C: 102 % of control
[11]
  T/C: 101 % of control
[12]
  T/C: 98 % of control

## Cc1ccc(C(SCC(N)C(=O)O)(c2ccccc2)c2ccccc2)cc1 (stereo unspecified)
dose: 12.5 mg/kg/injection, schedule: Q01DX009 (ip), vehicle: other
  T/C: 157 % of control
[13]
  T/C: 159 % of control
dose: 25.0 mg/kg/injection, schedule: Q01DX009 (ip), vehicle: other
  T/C: 157 % of control
dose: 25.0 mg/kg/injection, schedule: Q01DX009 (ip), vehicle: saline
  T/C: 171 % of control
dose: 50.0 mg/kg/injection, schedule: Q01DX009 (ip), vehicle: other
  T/C: 151 % of control
[4]
  T/C: 204 % of control

## Ic1sc(I)c(I)c1I
[14]
  T/C: 95 % of control
[15]
  T/C: 93 % of control
[16]
  T/C: 104 % of control

## COc1ccc(OC)c(NC(=O)Oc2ccccc2C(N)=O)c1
dose: 25.0 mg/kg/injection, schedule: Q04DX003 (ip), vehicle: Klucel (hydroxypropylcellulose) (HPC)
  T/C: 89 % of control
dose: 50.0 mg/kg/injection, schedule: Q04DX003 (ip), vehicle: Klucel (hydroxypropylcellulose) (HPC)
  T/C: 95 % of control
[17]
  T/C: 94 % of control and 92 % of control

## CCCCCCCCCCCCCSCCSCCCCCCCCCCCCC
[10]
  T/C: 96 % of control
[11]
  T/C: 86 % of control
[12]
  T/C: 96 % of control

## C[n+]1ccc(/C=C/c2ccc(O)c3ccccc23)cc1
[18]
  T/C: 100 % of control
[19]
  T/C: 101 % of control

## F[Si](F)(c1ccccc1)c1ccccc1
[18]
  T/C: 105 % of control
[19]
  T/C: 100 % of control

## C#CCN
[8]
  T/C: 103 % of control
[5]
  T/C: 94 % of control
[9]
  T/C: 102 % of control
[7]
  T/C: 96 % of control
dose: 400.0 mg/kg/injection, schedule: Q01DX001 (ip), vehicle: saline
  T/C: 102 % of control
dose: 400.0 mg/kg/injection, schedule: Q01DX009 (ip), vehicle: saline
  T/C: 93 % of control

## O=S(=O)(Cc1cccc(C(F)(F)F)c1)c1ccccc1-n1cccc1
[20]
  T/C: 90 % of control
[21]
  T/C: 98 % of control

## CCNC(=O)NC(CSCSC)C(=O)OC (stereo unspecified)
[22]
  T/C: 98 % of control
[23]
  T/C: 104 % of control
[24]
  T/C: 105 % of control
[25]
  T/C: 105 % of control
[26]
  T/C: 96 % of control
[27]
  T/C: 102 % of control

## COc1ccccc1NC(=O)Nc1cc(C)cc(C)n1
[22]
  T/C: 101 % of control
[23]
  T/C: 97 % of control
[24]
  T/C: 98 % of control
[25]
  T/C: 97 % of control
[26]
  T/C: 104 % of control
[27]
  T/C: 101 % of control

## CCCCCCCCCCCCC(=O)N(CC)CC
[1]
  T/C: 87 % of control
[2]
  T/C: 94 % of control
[3]
  T/C: 94 % of control

## N#CC1=C(C#N)C(=O)C(Cl)=C(Cl)C1=O
dose: 6.25 mg/kg/injection, schedule: Q01DX009 (ip), vehicle: saline
  T/C: 98 % of control
[13]
  T/C: 102 % of control
dose: 12.5 mg/kg/injection, schedule: Q04DX003 (ip), vehicle: saline sonified
  T/C: 104 % of control
dose: 25.0 mg/kg/injection, schedule: Q04DX003 (ip), vehicle: saline sonified
  T/C: 93 % of control

## O=C(O)c1ccc(Br)cc1O
[14]
  T/C: 98 % of control
[15]
  T/C: 104 % of control
[16]
  T/C: 95 % of control

## COc1cc(-c2nc3ccccc3c(=O)o2)cc(OC)c1OC
[22]
  T/C: 105 % of control
[23]
  T/C: 103 % of control
[24]
  T/C: 91 % of control
[25]
  T/C: 89 % of control
[27]
  T/C: 97 % of control

## OC1CSC2=[N+]1CCS2 (stereo unspecified)
[18]
  T/C: 98 % of control
[19]
  T/C: 112 % of control
dose: 300.0 mg/kg/injection, schedule: Q01DX001 (ip), vehicle: saline
  T/C: 111 % of control

## CC12CCCC(O)C1(O)CC(C(=O)O)CC2 (stereo unspecified)
dose: 50.0 mg/kg/injection, schedule: Q01DX009 (ip), vehicle: saline with Tween-80
  T/C: 100 % of control
[22]
  T/C: 96 % of control
[24]
  T/C: 96 % of control

## CCCNC(=O)c1cccc(-c2cccc(C(=O)NCCC)c2)c1
dose: 200.0 mg/kg/injection, schedule: Q01DX001 (ip), vehicle: other
  T/C: 93 % of control

## CC1CN1C1=C(Cl)C(=O)C(N2CC2C)=C(Cl)C1=O (stereo unspecified)
dose: 0.78 mg/kg/injection, schedule: Q01DX009 (ip), vehicle: Klucel (hydroxypropylcellulose) (HPC)
  T/C: 104 % of control
dose: 1.56 mg/kg/injection, schedule: Q01DX009 (ip), vehicle: Klucel (hydroxypropylcellulose) (HPC)
  T/C: 105 % of control
dose: 3.12 mg/kg/injection, schedule: Q01DX009 (ip), vehicle: Klucel (hydroxypropylcellulose) (HPC)
  T/C: 102 % of control
dose: 6.25 mg/kg/injection, schedule: Q01DX009 (ip), vehicle: Klucel (hydroxypropylcellulose) (HPC)
  T/C: 96 % of control
dose: 12.5 mg/kg/injection, schedule: Q01DX009 (ip), vehicle: Klucel (hydroxypropylcellulose) (HPC)
  T/C: 107 % of control

## COC(C(=O)O)c1ccc(Br)cc1 (stereo unspecified)
dose: 75.0 mg/kg/injection, schedule: Q01DX001 (ip), vehicle: acetone
  T/C: 95 % of control
dose: 150.0 mg/kg/injection, schedule: Q01DX001 (ip), vehicle: acetone
  T/C: 94 % of control

## CCCCCCOC(=O)Nc1ccc(S(=O)(=O)CC)cc1
[14]
  T/C: 100 % of control
[15]
  T/C: 97 % of control
[16]
  T/C: 97 % of control

## CC(=O)Oc1ccc(/C=C(\NC(=O)c2ccccc2)C(=O)O)cc1
[17]
  T/C: 95 % of control
[20]
  T/C: 91 % of control
[21]
  T/C: 91 % of control

— PubChem BioAssay AID248 (DTP/NCI, 2004)
